According to ChEMBL document CHEMBL1201862, “PubChem BioAssay data set” (2004):
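Compound exposure: 48 hours, 5 concentrations, 96-well plates. GI50 is the concentration that inhibits growth by half.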 Activity calls are given as the source filed them. Rule as the data show it: active = GI50 up to about 1.1 µM and inactive = higher.

What was measured:
Test in all cases: NCI-60 cell line screen, 48 h
[1] = system: ACHN
[2] = system: COLO 205
[3] = system: HCC 2998
[4] = system: HCT-116
[5] = system: HCT-15
[6] = system: HOP-92
[7] = system: IGROV-1
[8] = system: K562
[9] = system: MCF7
[10] = system: MDA-N
[11] = system: MOLT-4
[12] = system: NCI-H226
[13] = system: NCI-H23
[14] = system: NCI-H460
[15] = system: OVCAR-8
[16] = system: RPMI-8226
[17] = system: RXF 393
[18] = system: SF-295
[19] = system: SK-OV-3
[20] = system: UO-31

| SMILES | GI50 [1] | GI50 [2] | GI50 [3] | GI50 [4] | GI50 [5] [µM] | GI50 [6] | GI50 [7] | GI50 [8] | GI50 [9] | GI50 [10] | GI50 [11] | GI50 [12] | GI50 [13] | GI50 [14] | GI50 [15] | GI50 [16] | GI50 [17] | GI50 [18] | GI50 [19] | GI50 [20] |
| --- | --- | --- | --- | --- | --- | --- | --- | --- | --- | --- | --- | --- | --- | --- | --- | --- | --- | --- | --- | --- |
| COc1cc(C(c2cc3c(cc2O)OCO3)N2CCCCC2)cc(OC)c1OC (stereo not given) | 17.1 µM (inactive) | 13.4 µM (inactive) | 22.2 µM (inactive) | 15.4 µM (inactive) | 15.9 | 9.25 µM (inactive) | 17.7 µM (inactive) | 2.63 µM (inactive) | 13.6 µM (inactive) | 7.28 µM (inactive) | 2.15 µM (inactive) | 16.1 µM (inactive) | 15.2 µM (inactive) | 21.8 µM (inactive) | 13.2 µM (inactive) | 2.96 µM (inactive) | 13.2 µM (inactive) | 41.5 µM (inactive) | 22.2 µM (inactive) | 14.8 µM (inactive) |
| CC1(C)C(=O)/C=C\C(=O)C(C)(C)C(=O)/C=C\C(=O)C(C)(C)C2=CC=C(O2)C(C)(C)C(=O)/C=C\C1=O | 3.63 µM (inactive) | 2.29 µM (inactive) | 11.7 µM (inactive) | 2.08 µM (inactive) | 3.7 | 1.8 µM (inactive) | 9.18 µM (inactive) | 1.63 µM (inactive) | 10.6 µM (inactive) | 5.01 µM (inactive) | 1.27 µM (inactive) | 13.6 µM (inactive) | 5.55 µM (inactive) | 20.5 µM (inactive) | 4.44 µM (inactive) | 0.789 µM (active) | 2 µM (inactive) | 17.3 µM (inactive) | 15.9 µM (inactive) | 14.5 µM (inactive) |
| CCOc1ccc(-n2c(=O)c3nn4c(=O)n(-c5ccc(OCC)cc5)c(=O)c4nn3c2=O)cc1 | > 100 µM (inactive) | > 100 µM (inactive) | > 100 µM (inactive) | > 100 µM (inactive) | > 100 | 30.9 µM (inactive) | > 100 µM (inactive) | > 100 µM (inactive) | > 100 µM (inactive) | > 100 µM (inactive) | > 100 µM (inactive) | > 100 µM (inactive) | > 100 µM (inactive) | > 100 µM (inactive) | > 100 µM (inactive) | > 100 µM (inactive) | 44.6 µM (inactive) | 43.3 µM (inactive) | > 100 µM (inactive) | > 100 µM (inactive) |
| C=C1C(=O)CC2C1CC(=O)/C(C)=C/CCC(C)(O)C2O (stereo not given) | 2.37 µM (inactive) | 2.03 µM (inactive) | 7.74 µM (inactive) | 3.86 µM (inactive) | 4.9 | 8.67 µM (inactive) | 10.6 µM (inactive) | 2.19 µM (inactive) | 0.249 µM (active) | 1.48 µM (inactive) | 1.57 µM (inactive) | 30.9 µM (inactive) | 8.17 µM (inactive) | 2.38 µM (inactive) | 4.3 µM (inactive) | 1.41 µM (inactive) | 6.67 µM (inactive) | 27.4 µM (inactive) | 2.84 µM (inactive) | 11.7 µM (inactive) |
| [N-]=[N+]=Nc1ccc2c(c1)Sc1ccccc1N2CCCCCl | > 100 µM (inactive) | 18.7 µM (inactive) | 61.8 µM (inactive) | 30.2 µM (inactive) | 81.3 | 32.2 µM (inactive) | > 100 µM (inactive) | 14 µM (inactive) | 14.9 µM (inactive) | 48.4 µM (inactive) | 22 µM (inactive) | 48.9 µM (inactive) | 41.8 µM (inactive) | 83.2 µM (inactive) | 69.8 µM (inactive) | 23.3 µM (inactive) | 78.9 µM (inactive) | > 100 µM (inactive) | > 100 µM (inactive) | > 100 µM (inactive) |
| COc1ccc(/N=N/C(=NNC(=O)c2ccc(C)cc2)c2ccc(N(C)C)cc2)cc1 | 35.1 µM (inactive) | 6.84 µM (inactive) | 35.3 µM (inactive) | 34.4 µM (inactive) | 32.4 | 41.5 µM (inactive) | 59.6 µM (inactive) | 29.4 µM (inactive) | 17.1 µM (inactive) | 23.8 µM (inactive) | 20.9 µM (inactive) | 39.8 µM (inactive) | 26.4 µM (inactive) | 39.7 µM (inactive) | 40.3 µM (inactive) | 17.5 µM (inactive) | 32 µM (inactive) | 28.4 µM (inactive) | 31.8 µM (inactive) | 52.2 µM (inactive) |
| [N-]=[N+]=C(C(=O)OCC#CCOC(=O)C(=[N+]=[N-])S(=O)(=O)c1ccccc1)S(=O)(=O)c1ccccc1 | > 10 µM (inactive) | > 10 µM (inactive) | > 10 µM (inactive) | > 10 µM (inactive) | > 10 | > 10 µM (inactive) | > 10 µM (inactive) | > 10 µM (inactive) | > 10 µM (inactive) | > 10 µM (inactive) | > 10 µM (inactive) | > 10 µM (inactive) | > 10 µM (inactive) | > 10 µM (inactive) | > 10 µM (inactive) | > 10 µM (inactive) | > 10 µM (inactive) | > 10 µM (inactive) | > 10 µM (inactive) | 0.2 µM (active) |
| ONCCCn1cnc2c(NC3CC3)ncnc21 | > 100 µM (inactive) | > 100 µM (inactive) | > 100 µM (inactive) | > 100 µM (inactive) | > 100 | > 100 µM (inactive) | > 100 µM (inactive) | > 100 µM (inactive) | > 100 µM (inactive) | > 100 µM (inactive) | > 100 µM (inactive) | > 100 µM (inactive) | > 100 µM (inactive) | > 100 µM (inactive) | > 100 µM (inactive) | > 100 µM (inactive) | > 100 µM (inactive) | > 100 µM (inactive) | > 100 µM (inactive) | > 100 µM (inactive) |
| CN(C)c1ccc(/C=c2/c3ccccc3n3c2cc(/C=C/c2ccccc2)[n+]3C)cc1 | 0.255 µM (active) | 0.073 µM (active) | 0.121 µM (active) | 0.0824 µM (active) | 0.881 | 0.0358 µM (active) | 0.145 µM (active) | 0.0951 µM (active) | 0.147 µM (active) | 0.249 µM (active) | 0.0743 µM (active) | 0.11 µM (active) | 0.0783 µM (active) | 0.185 µM (active) | 0.0773 µM (active) | 0.0208 µM (active) | 0.0538 µM (active) | 0.225 µM (active) | 0.296 µM (active) | 0.344 µM (active) |
| Cc1ccnc2[nH]c3ccccc3c(=O)c12 | 20.5 µM (inactive) | 19.8 µM (inactive) | 19.9 µM (inactive) | 16.6 µM (inactive) | 25.5 | 41.6 µM (inactive) | 17.5 µM (inactive) | 33.2 µM (inactive) | 21.8 µM (inactive) | 21 µM (inactive) | 20.4 µM (inactive) | 24.7 µM (inactive) | 22.9 µM (inactive) | 19 µM (inactive) | 27 µM (inactive) | 25.9 µM (inactive) | 15.6 µM (inactive) | 35.5 µM (inactive) | 43.5 µM (inactive) | 18 µM (inactive) |
| NCCCN(CCCCN(CCCN)Cc1ccccc1)Cc1ccccc1 | 32.4 µM (inactive) | 32.4 µM (inactive) | 10.8 µM (inactive) | 30.8 µM (inactive) | > 100 | > 10 µM (inactive) | 17.1 µM (inactive) | 54.2 µM (inactive) | 25.1 µM (inactive) | 18.4 µM (inactive) | 20.1 µM (inactive) | 21.2 µM (inactive) | 42.2 µM (inactive) | 15.3 µM (inactive) | 49.5 µM (inactive) | > 100 µM (inactive) | 85.3 µM (inactive) | 69 µM (inactive) | 62.5 µM (inactive) | 26.1 µM (inactive) |
| Cc1ccc2nc(-c3ccc(NC(=O)c4ccc(N)cc4)c(S(=O)(=O)O)c3)sc2c1 | > 100 µM (inactive) | > 100 µM (inactive) | > 100 µM (inactive) | > 100 µM (inactive) | > 100 | > 100 µM (inactive) | > 100 µM (inactive) | > 100 µM (inactive) | > 100 µM (inactive) | > 100 µM (inactive) | > 100 µM (inactive) | > 100 µM (inactive) | > 100 µM (inactive) | > 100 µM (inactive) | > 100 µM (inactive) | > 100 µM (inactive) | > 100 µM (inactive) | > 100 µM (inactive) | > 100 µM (inactive) | > 100 µM (inactive) |
| CCCCc1c2c(c(C)c3c1C(=O)OC3)Oc1ccccc1O2 | 4.59 µM (inactive) | 0.855 µM (active) | 0.646 µM (active) | 0.565 µM (active) | 0.708 | 10.2 µM (inactive) | 0.608 µM (active) | 0.379 µM (active) | 1.63 µM (inactive) | 0.145 µM (active) | 0.973 µM (active) | 2.8 µM (inactive) | 2.9 µM (inactive) | 0.369 µM (active) | 3.67 µM (inactive) | 1.25 µM (inactive) | 0.975 µM (active) | 0.467 µM (active) | 1.57 µM (inactive) | 5.77 µM (inactive) |
